Data reported in patent US8637562B2, “Methods for detecting sulfhydryl-containing compounds in a biological test sample” (Theravance, Inc., priority 2008, dated 2014).

Columns and labels:
Format in all cases: in vitro ADME
[1] = Hydrolysis of the methyl acrylate derivative in monkey plasma (monomer detection method, LC-MS/MS)
Experimental: (§1) Subsequent studies were conducted using dog and monkey plasma. Accordingly, similar calibration standards were prepared in dog and monkey plasma.
(§2) Plasma samples were extracted by protein precipitation. In general, 200 μL of MeCN containing a specified concentration of the internal standard was added into a 50 μL aliquot of each plasma calibration standard, QC, and in vivo plasma sample. The plasma samples were then vortexed and centrifuged. 100 μL of extract was then taken from each plasma sample and reconstituted into 200 μL of 5% MeCN/water containing 0.2% formic acid.
(§3) Multiple reaction monitoring (MRM) is the standard technique for quantitative LC-MS/MS experiments. Four specific MRM transitions for compound I-a, compound III-a, compound IV-a, and the internal standard were simultaneously monitored by LC-MS/MS. 4′-(5-{[(S)-2-(2-Carboxyethylsulfanyl)-4-methylpentanoyl amino]methyl}-2-ethoxy-4-ethylimidazol-1-ylmethyl)-3′-fluorobiphenyl-2-carboxylic acid (compound IV-a):
(§4) [drawing 27] is the hydrolyzed form of compound III-a. […] The relevant derivative concentrations of in vivo samples were determined from the calibration curve. The monomer concentration (in ng/mL units) was calculated from the concentration of the relevant derivative multiplied by the correction factor of the ratio of the molecular weight of the monomer/molecular weight of the derivative.

[2] = Hydrolysis of the methyl acrylate derivative in rat plasma (monomer detection method, LC-MS/MS); settings: rat plasma containing 1% (v/v) methyl acrylate
Experimental: Rat blood (0.3 mL) was placed into EDTA microtainer tubes containing methyl acrylate (3 μL) (1:100 volume ratio of methyl acrylate:blood). Blood and methyl acrylate were mixed by gentle rolling and tapping of the tube. After 30 minutes of reaction at room temperature, the blood samples were placed on ice until centrifugation. The blood was processed to obtain plasma by centrifugation for 4 minutes at approximately 12,000 rpm. 0.15 mL of plasma was then transferred to cluster tubes on dry ice.
[drawing 26] into a specified volume of blank rat plasma containing 1% (v/v) of methyl acrylate. Compound III-a is the methyl acrylate derivative of compound I-a. In general, the calibration curve range was 0.1 to 1000 ng/mL of compound III-a in rat plasma. […]
Multiple reaction monitoring (MRM) is the standard technique for quantitative LC-MS/MS experiments. Four specific MRM transitions for compound I-a, compound III-a, compound IV-a, and the internal standard were simultaneously monitored by LC-MS/MS. […]
as §4

[3] = Hydrolysis of the methyl acrylate derivative in dog plasma (monomer detection method, LC-MS/MS)
Experimental: as §1, §2, §3, §4

- hydrolysis of compound III-a to compound IV-a in plasma [1]: not
- hydrolysis of compound III-a to compound IV-a in plasma [2]: completely hydrolyzes to compound IV-a
- hydrolysis of compound III-a to compound IV-a in plasma [3]: not
SMILES: CCOc1nc(CC)c(CNC(=O)[C@H](CC(C)C)SCCC(=O)OC)n1Cc1ccc(-c2ccccc2C(=O)O)cc1F [Compound III-a, 4′-(2-ethoxy-4-ethyl-5-{[(S)-2-(2-methoxycarbonylethylsulfanyl)-4-methylpentanoylamino]methyl}imidazol-1-ylmethyl)-3′-fluorobiphenyl-2-carboxylic acid]
